What was measured:
Assay type in all cases: binding
[1] = target: T1, GT198 (wild type full length, His-tagged) (Homo sapiens, UniProt Q9P2W1); assay: competition with Oregon green-taxol on protein-coated plates, fluorescence
T1 construct: gene PSMC3IP; full length aa 1-217, N-terminal His tag kept, E. coli BL21(DE3)pLysS, Ni-NTA; homodimer
T1 sequence (Q9P2W1 1-217): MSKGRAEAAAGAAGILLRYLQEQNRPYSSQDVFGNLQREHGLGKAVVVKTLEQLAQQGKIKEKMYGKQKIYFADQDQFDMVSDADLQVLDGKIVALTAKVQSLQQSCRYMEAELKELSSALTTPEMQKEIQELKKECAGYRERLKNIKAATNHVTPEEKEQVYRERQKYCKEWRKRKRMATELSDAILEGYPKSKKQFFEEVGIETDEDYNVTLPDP

[2] = target: T2, GT198 DBD fragment 126-217 (Homo sapiens, UniProt Q9P2W1); assay: as above
T2 construct: gene PSMC3IP
T2 sequence (Q9P2W1 126-217): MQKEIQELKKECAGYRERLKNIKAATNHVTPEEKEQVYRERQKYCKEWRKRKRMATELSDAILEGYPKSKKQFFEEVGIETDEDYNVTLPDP

[3] = target: T1, GT198 (wild type full length, His-tagged); assay: competition with biotinylated ssDNA on protein-coated plates, streptavidin-HRP chemiluminescence
[4] = target: T2, GT198 DBD fragment 126-217; assay: as above

For `CC(=O)O[C@H]1C(=O)[C@@]2(C)[C@H]([C@H](OC(=O)c3ccccc3)[C@]3(O)C[C@H](OC(=O)[C@H](O)[C@@H](NC(=O)c4ccccc4)c4ccccc4)C(C)=C1C3(C)C)[C@]1(OC(C)=O)CO[C@@H]1C[C@@H]2O` [taxol], the IC50 [1] was 8.8 nM, the IC50 [2] was 15.2 nM and the IC50 [3] was 8.6 nM. The IC50 [4] was 7.3 nM.
